# Experimental data from patent publication EP2276483B1, “SOLID FORMS COMPRISING (+)-2-[1-(3-ETHOXY-4-METHOXYPHENYL)-2-METHYLSULFONYLETHYL]-4-ACETYLAMINOISOINDOLINE-1,3-DIONE, COMPOSITIONS THEREOF, AND USES THEREOF” (CELGENE CORPORATION, priority 2008, dated 2009).
# What was measured:
# TNF-α = experiment: Human Whole Blood LPS-induced TNF-α assay; type: cell-based
# Procedure: The ability of compounds to inhibit LPS-induced-TNF-α production by human whole blood was measured essentially as described below for the LPS-induced TNF-α assay in human PBMC, except that freshly drawn whole blood was used instead of PBMC.
# Lipopolysaccharide (LPS) is an endotoxin produced by gram-negative bacteria such as E. coli which induces production of many pro-inflammatory cytokines, including TNF-α. In peripheral blood mononuclear cells (PBMC), the TNF-α produced in response to LPS is derived from monocytes, which comprise approximately 5-20% of the total PBMC. Compounds were tested for the ability to inhibit LPS-induced TNF-α production from human PBMC as previously described (Muller et al., 1996, J. Med. Chem., 39:3238). PBMC from normal donors were obtained by Ficoll Hypaque (Pharmacia, Piscataway, NJ, USA) density centrifugation. Cells were cultured in RPMI (Life Technologies, Grand Island, NY, USA) supplemented with 10% AB± human serum (Gemini Bio-products, Woodland, CA, USA), 2 mM L-glutamine, 100 U/ml penicillin, and 100 µg/ml streptomycin (Life Technologies).
# PBMC (2 x 10^5 cells) were plated in 96-well flat-bottom Costar tissue culture plates (Coming, NY, USA) in triplicate. Cells were stimulated with LPS (Sigma, St. Louis, MO, USA) at 100 ng/ml in the absence or presence of compounds. […]
# [1] = molecular target: T1, PDE6 from bovine retinal rod outer segments (Bos taurus, UniProt P11541+P23439); experiment: PDE6 enzyme assay; type: biochemical
# T1 construct: PDE6 from bovine retinal rod outer segments; from tissue; host or cells: bovine retinal rod outer segments
# T1 sequence (P11541 2-856 limits assumed): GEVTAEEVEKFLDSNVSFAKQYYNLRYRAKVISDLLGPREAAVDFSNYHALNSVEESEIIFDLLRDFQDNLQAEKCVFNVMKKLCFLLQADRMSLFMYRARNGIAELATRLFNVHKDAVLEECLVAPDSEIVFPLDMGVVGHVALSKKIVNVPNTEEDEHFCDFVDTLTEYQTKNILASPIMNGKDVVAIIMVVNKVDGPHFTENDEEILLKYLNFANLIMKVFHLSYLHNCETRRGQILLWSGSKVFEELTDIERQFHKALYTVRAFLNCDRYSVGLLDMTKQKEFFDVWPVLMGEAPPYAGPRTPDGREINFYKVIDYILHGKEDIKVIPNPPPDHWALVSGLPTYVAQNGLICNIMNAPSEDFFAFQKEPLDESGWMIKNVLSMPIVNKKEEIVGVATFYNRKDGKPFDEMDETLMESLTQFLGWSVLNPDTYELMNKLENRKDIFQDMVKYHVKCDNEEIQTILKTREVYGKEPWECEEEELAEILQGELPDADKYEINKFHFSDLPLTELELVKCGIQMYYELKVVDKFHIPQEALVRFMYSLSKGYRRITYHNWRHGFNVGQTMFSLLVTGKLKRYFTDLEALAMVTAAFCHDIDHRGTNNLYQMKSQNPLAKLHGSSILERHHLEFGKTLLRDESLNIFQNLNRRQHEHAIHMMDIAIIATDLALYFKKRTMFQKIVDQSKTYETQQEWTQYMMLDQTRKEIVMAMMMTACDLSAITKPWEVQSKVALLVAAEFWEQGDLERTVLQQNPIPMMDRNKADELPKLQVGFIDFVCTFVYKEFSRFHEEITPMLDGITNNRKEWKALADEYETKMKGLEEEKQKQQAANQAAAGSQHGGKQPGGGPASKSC
# T1 sequence (P23439 2-850 limits assumed): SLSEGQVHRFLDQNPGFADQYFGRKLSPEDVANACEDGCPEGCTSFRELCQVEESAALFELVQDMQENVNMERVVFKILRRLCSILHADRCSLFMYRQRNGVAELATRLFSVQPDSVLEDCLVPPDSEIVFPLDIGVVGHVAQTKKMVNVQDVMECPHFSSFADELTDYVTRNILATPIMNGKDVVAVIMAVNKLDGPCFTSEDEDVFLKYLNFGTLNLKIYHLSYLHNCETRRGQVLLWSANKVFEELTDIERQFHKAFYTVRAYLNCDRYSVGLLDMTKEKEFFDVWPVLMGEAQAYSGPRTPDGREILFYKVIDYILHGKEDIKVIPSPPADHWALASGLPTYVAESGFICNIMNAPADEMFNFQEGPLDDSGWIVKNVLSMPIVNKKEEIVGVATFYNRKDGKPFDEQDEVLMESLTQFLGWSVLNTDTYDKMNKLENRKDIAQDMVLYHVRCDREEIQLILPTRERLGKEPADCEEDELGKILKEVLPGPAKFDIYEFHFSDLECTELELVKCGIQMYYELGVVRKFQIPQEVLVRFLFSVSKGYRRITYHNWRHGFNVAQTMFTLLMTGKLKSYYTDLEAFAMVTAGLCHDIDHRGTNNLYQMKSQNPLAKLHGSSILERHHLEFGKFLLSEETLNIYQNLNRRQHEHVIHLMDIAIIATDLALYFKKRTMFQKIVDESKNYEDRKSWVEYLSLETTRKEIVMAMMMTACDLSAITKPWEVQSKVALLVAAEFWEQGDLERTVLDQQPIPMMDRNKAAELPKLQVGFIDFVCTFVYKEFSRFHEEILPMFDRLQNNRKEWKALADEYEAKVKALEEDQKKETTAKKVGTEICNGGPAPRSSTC
# IFN-γ = experiment: SEB-induced IFN-γ production in human PBMC; type: cell-based; details: 100 ng/ml SEB
# [2] = system: patients with severe plaque-type psoriasis; type: in vivo, human
# [3] = Nonresponder, 20 mg orally daily, signed change
structure (smiles),measurement,setting,value
"CCOc1cc(C(CS(C)(=O)=O)N2C(=O)c3cccc(NC(C)=O)c3C2=O)ccc1OC (single isomer, unassigned; (+)) [Compound A, (+)-2-[1-(3-ethoxy-4-methoxyphenyl)-2-methylsulfonylethyl]-4-acetylaminoisoindoline-1,3-dione]",IC50,TNF-α,294 nM
same,PDE Specificity Ratio PDE4/PDE6,[1]; from above data,>40000 fold
same,inhibition at 10 µM,[1]; read-out: PDE6 (% inhib at 10 µM),-6%
same,IC50,IFN-γ,46 nM
same,treatment-related adverse event: headache,[2]; 20 mg orally daily for 29 days,26.3%
same,treatment-related adverse event: nausea,[2]; 20 mg orally daily for 29 days,15.8%
same,patients demonstrating a 20% reduction in epidermal skin thickness,"[2]; 20 mg orally daily for 29 days, Day 29, 8 of the 15 patients with evaluable biopsies",53.3%
same,mean reduction of epidermal thickness,"[2]; 20 mg orally daily, Day 29, all 15 subjects with evaluable biopsies, p=0.015",20.5%
same,safety in subjects with severe plaque-type psoriasis,[2]; 20 mg p.o. QD for 29 days,safe
same,patients demonstrating improvement in the static Physician's Global Assessment (sPGA),"[2]; 9 of the 17 evaluable patients, 29 days of treatment",52.9%
same,patients showing a reduction from baseline in psoriasis body surface area (BSA),"[2]; 10 of the 17 evaluable patients, 29 days of treatment",58.8%
same,patients showing a >50% reduction from baseline in total PASI score,"[2]; Day 29, 3 patients of 19 enrolled",15.8%
same,subjects demonstrating improvement in their PASI,"[2]; Day 29, 14 of the 19 subjects enrolled",73.7%
same,enrolled patients showing a reduction from baseline in psoriasis body surface area (BSA),"[2]; Day 29, of enrolled patients",52.6%
same,enrolled patients showing an improvement in their sPGA,"[2]; Day 29, of enrolled patients",47.4%
same,"Percentage Reduction of Key Inflammatory Markers at Day 29: CD11c, Dermis",[2]; [3],-21.19%
same,"Percentage Reduction of Key Inflammatory Markers at Day 29: CD11c, Epidermis",[2]; [3],-2.54%
same,"Percentage Reduction of Key Inflammatory Markers at Day 29: CD83+, Dermis",[2]; [3],+0.46%
same,"Percentage Reduction of Key Inflammatory Markers at Day 29: CD83+, Epidermis",[2]; [3],-16.31%
same,"Percentage Reduction of Key Inflammatory Markers at Day 29: T-cells, Dermis",[2]; [3],-17.34%
same,"Percentage Reduction of Key Inflammatory Markers at Day 29: T-cells, Epidermis",[2]; [3],+8.74%
same,reduction of mRNA expression of iNOS,"[2]; lesional skin after 29 days of treatment, RT-PCR, p=0.025",66.5%
